Source: patent US12252524B2, “GIP/GLP1 co-agonist compounds” (Eli Lilly and Company, priority 2018, dated 2025)
Numbered stars: 1 amine (or outer) side, 2 acyl side, 3 side chain; on linkers, the order of the positions; unused ones are H or OH. Square brackets hold non-standard residues; d marks the D form. Side chains are listed from the residue outwards. Peptide text beside a SMILES is read from it. * marks the point of attachment. C20 diacid = O=C(O)CCCCCCCCCCCCCCCCCCC(=O)*; γGlu = O=C(O)[C@H](CCC(=O)[*:2])N[*:1]; AEEA = NCCOCCOCC(=O)O; Aib = CC(C)(N)C(=O)O

Tests used:
[1] = biological target: human GLP-1 receptor (GLP-1R) (Homo sapiens, UniProt P43220); test: cAMP pharmacological functional assay in presence of casein, hGLP-1R; format: cell-based; details: HEK293 cells expressing hGLP-1R, 0.1% Casein, geometric mean; read-out: hGLP1R cAMP Rel EC50 nM (SEM, n)
[2] = biological target: T1, gastric inhibitory peptide receptor (GIPR) (Homo sapiens, UniProt P48546); test: cAMP pharmacological functional assay in presence of casein, hGIPR; format: cell-based; details: HEK293 cells expressing hGIPR, 0.1% Casein, geometric mean; read-out: hGIPR cAMP Rel EC50 nM (SEM, n)
T1 sequence (P48546 22-466): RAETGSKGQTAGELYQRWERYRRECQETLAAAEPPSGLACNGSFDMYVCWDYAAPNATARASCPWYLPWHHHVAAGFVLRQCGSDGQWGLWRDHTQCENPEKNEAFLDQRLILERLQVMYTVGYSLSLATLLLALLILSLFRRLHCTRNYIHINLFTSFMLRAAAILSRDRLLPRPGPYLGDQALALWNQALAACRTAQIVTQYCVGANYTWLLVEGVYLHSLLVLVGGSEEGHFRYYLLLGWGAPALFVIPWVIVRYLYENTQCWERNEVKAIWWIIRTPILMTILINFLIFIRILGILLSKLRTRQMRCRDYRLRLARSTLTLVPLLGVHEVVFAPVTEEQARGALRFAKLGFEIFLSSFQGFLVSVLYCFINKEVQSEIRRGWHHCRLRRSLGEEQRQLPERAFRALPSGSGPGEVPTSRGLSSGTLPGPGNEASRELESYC

human Gcg receptor = biological target: T2, human Gcg receptor (Homo sapiens, UniProt P47871); test: [125I]-Glucagon binding (SPA), human Gcg receptor; details: read-out: hGLcgR Ki, nM (SEM, n)
T2 construct: expressed in transfected cells; crude membranes
Method in brief: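 Crude membranes from cells expressing the receptor, prepared by hypotonic lysis in 50 mM Tris HCl pH 7.5 with protease inhibitors, homogenization and differential centrifugation, were used in a WGA-bead SPA. Binding buffer: 25 mM HEPES pH 7.4, 2.5 mM CaCl2, 1 mM MgCl2, bacitracin, Tween-20.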

human GLP-1R = human GLP-1R (Homo sapiens, UniProt P43220); test: [125I]-GLP-1 binding (SPA), human GLP-1 receptor; set-up: expressed in transfected cells; crude membranes; details: read-out: hGLP1R Ki, (nM) (SEM, n)
Method in brief: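 Assay buffer: HEPES 25 mM, pH 7.4, CaCl2 2.5 mM, MgCl2 1 mM, with EDTA-free protease inhibitors. Receptor came from crude cell membranes prepared by homogenization and centrifugation at 4° C. IC50s came from four-parameter fits (maximum, minimum, IC50, Hill slope) and were expressed as Ki geometric means with SEM.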

human GIP receptor = biological target: T3, human GIP receptor (Homo sapiens, UniProt P48546); test: [125I]-GIP binding (SPA), human GIP receptor; details: read-out: hGIPR Ki, nM (SEM, n)
T3 construct: expressed in transfected cells; crude membranes
T3 sequence (P48546 22-466): T1 sequence (P48546 22-466)

Chain of human GLP-1 receptor (GLP-1R) (P43220 24-463): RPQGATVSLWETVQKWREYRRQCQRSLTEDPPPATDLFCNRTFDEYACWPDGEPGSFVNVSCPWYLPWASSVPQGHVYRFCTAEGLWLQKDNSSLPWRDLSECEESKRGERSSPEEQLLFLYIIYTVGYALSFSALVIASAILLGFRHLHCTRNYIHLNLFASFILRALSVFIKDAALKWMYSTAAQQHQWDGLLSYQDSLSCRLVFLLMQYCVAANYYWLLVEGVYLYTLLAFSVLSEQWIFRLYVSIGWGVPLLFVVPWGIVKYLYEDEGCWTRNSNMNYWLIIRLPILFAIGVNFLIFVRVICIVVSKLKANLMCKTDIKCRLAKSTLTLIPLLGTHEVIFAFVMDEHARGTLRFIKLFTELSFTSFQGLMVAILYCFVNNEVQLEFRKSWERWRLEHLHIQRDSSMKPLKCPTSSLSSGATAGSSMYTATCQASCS
Chain of human GLP-1R (P43220 24-463): as above
T2 sequence (P47871 26-477): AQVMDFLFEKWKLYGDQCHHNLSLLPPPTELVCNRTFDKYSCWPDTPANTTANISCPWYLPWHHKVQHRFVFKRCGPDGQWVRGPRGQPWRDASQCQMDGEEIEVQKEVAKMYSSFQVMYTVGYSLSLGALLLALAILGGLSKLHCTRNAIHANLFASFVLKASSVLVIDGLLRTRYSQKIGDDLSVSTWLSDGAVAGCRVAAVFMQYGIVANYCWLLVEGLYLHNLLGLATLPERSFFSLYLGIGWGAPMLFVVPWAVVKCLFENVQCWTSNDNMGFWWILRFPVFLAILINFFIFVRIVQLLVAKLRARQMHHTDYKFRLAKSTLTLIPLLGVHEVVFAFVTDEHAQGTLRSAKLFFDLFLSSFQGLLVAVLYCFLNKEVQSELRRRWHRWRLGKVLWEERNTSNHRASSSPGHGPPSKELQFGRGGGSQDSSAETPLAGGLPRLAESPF

| Structure (SMILES) | EC50 [1] [nM] | EC50 [2] [nM] | Ki (human Gcg receptor) [nM] | Ki (human GLP-1R) [nM] | Ki (human GIP receptor) [nM] |
| --- | --- | --- | --- | --- | --- |
| CC[C@H](C)[C@H](NC(=O)[C@H](CC(C)C)NC(=O)[C@H](Cc1ccc(O)cc1)NC(=O)[C@H](CCC(=O)O)NC(=O)[C@@H](NC(=O)[C@H](Cc1ccccc1)NC(=O)[C@H](C)NC(=O)C(C)(C)NC(=O)[C@H](CCC(N)=O)NC(=O)[C@H](C)NC(=O)[C@H](CCCCNC(=O)COCCOCCNC(=O)COCCOCCNC(=O)CC[C@H](NC(=O)CCCCCCCCCCCCCCCCCCC(=O)O)C(=O)O)NC(=O)[C@H](CCCCN)NC(=O)[C@H](CC(=O)O)NC(=O)[C@H](CC(C)C)NC(=O)[C@H](CC(C)C)NC(=O)[C@@H](NC(=O)[C@H](CO)NC(=O)[C@H](Cc1ccc(O)cc1)NC(=O)[C@H](CC(=O)O)NC(=O)[C@H](CO)NC(=O)[C@@H](NC(=O)[C@H](Cc1ccccc1)NC(=O)[C@@H](NC(=O)CNC(=O)[C@H](CCC(=O)O)NC(=O)C(C)(C)NC(=O)[C@@H](N)Cc1ccc(O)cc1)[C@@H](C)O)[C@@H](C)O)[C@@H](C)CC)[C@@H](C)CC)C(=O)N[C@@H](CCC(=O)O)C(=O)N[C@@H](C)C(=O)NCC(=O)N1CCC[C@H]1C(=O)N[C@@H](CO)C(=O)N[C@@H](CO)C(=O)NCC(=O)N[C@@H](C)C(=O)N1CCC[C@H]1C(=O)N1CCC[C@H]1C(=O)N1CCC[C@H]1C(=O)N[C@@H](CO)C(N)=O [Example 86] (H-Y[Aib]EGTFTSDYSILLDKK([AEEA-AEEA-γGlu-C20 diacid])AQ[Aib]AFIEYLIEAGPSSGAPPPS-NH2) | 0.271 | 0.0452 | > 1060 | 3.74 | 0.0401 |
| CC[C@H](C)[C@H](NC(=O)[C@H](CC(C)C)NC(=O)[C@H](Cc1ccc(O)cc1)NC(=O)[C@H](CCC(=O)O)NC(=O)[C@@H](NC(=O)[C@H](Cc1ccccc1)NC(=O)[C@H](C)NC(=O)C(C)(C)NC(=O)[C@H](CCC(N)=O)NC(=O)[C@H](C)NC(=O)[C@H](CCCCNC(=O)COCCOCCNC(=O)COCCOCCNC(=O)CC[C@H](NC(=O)CCCCCCCCCCCCCCCCCCC(=O)O)C(=O)O)NC(=O)[C@H](CCCCN)NC(=O)[C@H](CC(=O)O)NC(=O)[C@H](CC(C)C)NC(=O)[C@H](CC(C)C)NC(=O)[C@@H](NC(=O)[C@H](CO)NC(=O)[C@H](Cc1ccc(O)cc1)NC(=O)[C@H](CC(=O)O)NC(=O)[C@H](CO)NC(=O)[C@@H](NC(=O)[C@H](Cc1ccccc1)NC(=O)[C@@H](NC(=O)CNC(=O)[C@H](CCC(=O)O)NC(=O)[C@]1(C)CCCN1C(=O)[C@@H](N)Cc1ccc(O)cc1)[C@@H](C)O)[C@@H](C)O)[C@@H](C)CC)[C@@H](C)CC)C(=O)N[C@@H](CCC(=O)O)C(=O)NCC(=O)NCC(=O)N1CCC[C@H]1C(=O)N[C@@H](CO)C(=O)N[C@@H](CO)C(=O)NCC(=O)N[C@@H](C)C(=O)N1CCC[C@H]1C(=O)N1CCC[C@H]1C(=O)N1CCC[C@H]1C(=O)N[C@@H](CO)C(N)=O [Example 87] | 0.0801 | 0.0945 | 278 | 1.79 | 0.034 |
| CC[C@H](C)[C@H](NC(=O)[C@H](CC(C)C)NC(=O)[C@H](Cc1ccc(O)cc1)NC(=O)[C@H](CCC(=O)O)NC(=O)[C@@H](NC(=O)[C@H](Cc1ccccc1)NC(=O)[C@H](C)NC(=O)C(C)(C)NC(=O)[C@H](CCC(N)=O)NC(=O)[C@H](C)NC(=O)[C@H](CCCCNC(=O)COCCOCCNC(=O)COCCOCCNC(=O)CC[C@H](NC(=O)CCCCCCCCCCCCCCCCCCC(=O)O)C(=O)O)NC(=O)[C@H](CCCCN)NC(=O)[C@H](CC(=O)O)NC(=O)[C@H](CC(C)C)NC(=O)[C@H](CC(C)C)NC(=O)[C@@H](NC(=O)[C@H](CO)NC(=O)[C@H](Cc1ccc(O)cc1)NC(=O)[C@H](CC(=O)O)NC(=O)[C@H](CO)NC(=O)[C@@H](NC(=O)[C@H](Cc1ccccc1)NC(=O)[C@@H](NC(=O)CNC(=O)[C@H](CCC(=O)O)NC(=O)[C@@H]1CCCN1C(=O)[C@@H](N)Cc1ccc(O)cc1)[C@@H](C)O)[C@@H](C)O)[C@@H](C)CC)[C@@H](C)CC)C(=O)N[C@@H](CCC(=O)O)C(=O)NCC(=O)NCC(=O)N1CCC[C@H]1C(=O)N[C@@H](CO)C(=O)N[C@@H](CO)C(=O)NCC(=O)N[C@@H](C)C(=O)N1CCC[C@H]1C(=O)N1CCC[C@H]1C(=O)N1CCC[C@H]1C(=O)N[C@@H](CO)C(N)=O [Example 88] (H-YPEGTFTSDYSILLDKK([AEEA-AEEA-γGlu-C20 diacid])AQ[Aib]AFIEYLIEGGPSSGAPPPS-NH2) | 0.64 | 0.475 | 545 | 4.24 | 0.0717 |
| CC[C@H](C)[C@H](NC(=O)[C@H](CC(C)C)NC(=O)[C@H](Cc1ccc(O)cc1)NC(=O)[C@H](CCC(=O)O)NC(=O)[C@@H](NC(=O)[C@H](Cc1ccccc1)NC(=O)[C@H](C)NC(=O)C(C)(C)NC(=O)[C@H](CCC(N)=O)NC(=O)[C@H](C)NC(=O)[C@H](CCCCNC(=O)COCCOCCNC(=O)COCCOCCNC(=O)CC[C@H](NC(=O)CCCCCCCCCCCCCCCCCCC(=O)O)C(=O)O)NC(=O)[C@H](CCCCN)NC(=O)[C@H](CC(=O)O)NC(=O)[C@H](CC(C)C)NC(=O)[C@H](CC(C)C)NC(=O)[C@@H](NC(=O)[C@H](CO)NC(=O)[C@H](Cc1ccc(O)cc1)NC(=O)[C@H](CC(=O)O)NC(=O)[C@H](CO)NC(=O)[C@@H](NC(=O)[C@H](Cc1ccccc1)NC(=O)[C@@H](NC(=O)CNC(=O)[C@H](CCCC(=O)O)NC(=O)C(C)(C)NC(=O)[C@@H](N)Cc1ccc(O)cc1)[C@@H](C)O)[C@@H](C)O)[C@@H](C)CC)[C@@H](C)CC)C(=O)N[C@@H](CCC(=O)O)C(=O)NCC(=O)NCC(=O)N1CCC[C@H]1C(=O)N[C@@H](CO)C(=O)N[C@@H](CO)C(=O)NCC(=O)N[C@@H](C)C(=O)N1CCC[C@H]1C(=O)N1CCC[C@H]1C(=O)N1CCC[C@H]1C(=O)N[C@@H](CO)C(N)=O [Example 89] | 0.335 | 0.119 | 324 | 2.64 | 0.045 |
| CC[C@H](C)[C@H](NC(=O)[C@H](CC(C)C)NC(=O)[C@H](Cc1ccc(O)cc1)NC(=O)[C@H](CCC(=O)O)NC(=O)[C@@H](NC(=O)[C@H](Cc1ccccc1)NC(=O)[C@H](C)NC(=O)C(C)(C)NC(=O)[C@H](CCC(N)=O)NC(=O)[C@H](C)NC(=O)[C@H](CCCCNC(=O)COCCOCCNC(=O)COCCOCCNC(=O)CC[C@H](NC(=O)CCCCCCCCCCCCCCCCCCC(=O)O)C(=O)O)NC(=O)[C@H](CCCCN)NC(=O)[C@H](CC(=O)O)NC(=O)[C@H](CC(C)C)NC(=O)[C@H](CC(C)C)NC(=O)[C@@H](NC(=O)[C@H](CO)NC(=O)[C@H](Cc1ccc(O)cc1)NC(=O)[C@H](CC(=O)O)NC(=O)[C@H](CO)NC(=O)[C@@H](NC(=O)[C@H](Cc1ccccc1)NC(=O)[C@@H](NC(=O)CNC(=O)[C@H](CC(N)=O)NC(=O)C(C)(C)NC(=O)[C@@H](N)Cc1ccc(O)cc1)[C@@H](C)O)[C@@H](C)O)[C@@H](C)CC)[C@@H](C)CC)C(=O)N[C@@H](CCC(=O)O)C(=O)NCC(=O)NCC(=O)N1CCC[C@H]1C(=O)N[C@@H](CO)C(=O)N[C@@H](CO)C(=O)NCC(=O)N[C@@H](C)C(=O)N1CCC[C@H]1C(=O)N1CCC[C@H]1C(=O)N1CCC[C@H]1C(=O)N[C@@H](CO)C(N)=O [Example 90] (H-Y[Aib]NGTFTSDYSILLDKK([AEEA-AEEA-γGlu-C20 diacid])AQ[Aib]AFIEYLIEGGPSSGAPPPS-NH2; N-terminus assumed) | 0.532 | 0.0361 | 245 | 4.76 | 0.0472 |
| CC[C@H](C)[C@H](NC(=O)[C@H](CC(C)C)NC(=O)[C@H](Cc1ccc(O)cc1)NC(=O)[C@H](CCC(=O)O)NC(=O)[C@@H](NC(=O)[C@H](Cc1ccccc1)NC(=O)[C@H](C)NC(=O)C(C)(C)NC(=O)[C@H](CCC(N)=O)NC(=O)[C@H](C)NC(=O)[C@H](CCCCNC(=O)COCCOCCNC(=O)COCCOCCNC(=O)CC[C@H](NC(=O)CCCCCCCCCCCCCCCCCCC(=O)O)C(=O)O)NC(=O)[C@H](CCCCN)NC(=O)[C@H](CC(=O)O)NC(=O)[C@H](CC(C)C)NC(=O)[C@H](CC(C)C)NC(=O)[C@@H](NC(=O)[C@H](CO)NC(=O)[C@H](Cc1ccc(O)cc1)NC(=O)[C@H](CC(=O)O)NC(=O)[C@H](CO)NC(=O)[C@@H](NC(=O)[C@H](Cc1ccccc1)NC(=O)[C@@H](NC(=O)CNC(=O)CC[C@H](NC(=O)C(C)(C)NC(=O)[C@@H](N)Cc1ccc(O)cc1)C(=O)O)[C@@H](C)O)[C@@H](C)O)[C@@H](C)CC)[C@@H](C)CC)C(=O)N[C@@H](CCC(=O)O)C(=O)NCC(=O)NCC(=O)N1CCC[C@H]1C(=O)N[C@@H](CO)C(=O)N[C@@H](CO)C(=O)NCC(=O)N[C@@H](C)C(=O)N1CCC[C@H]1C(=O)N1CCC[C@H]1C(=O)N1CCC[C@H]1C(=O)N[C@@H](CO)C(N)=O [Example 91] | > 5000 | 19.2 | 540 | 5.23 | 1.8 |
